Experiments:
[1] = target: T1, neutral/alkaline ceramidase (Pseudomonas aeruginosa, UniProt Q9I596); experiment: Neutral/alkaline ceramidase activity inhibitory test; format: biochemical; details: enzyme liquid from Pseudomonas aeruginosa culture; C12-NBD Ceramide substrate; pH 8.5; 37° C., 2.5 hours; TLC fluorescence; read-out: neutral/alkaline ceramidase inhibitory activity in terms of IC50 (converted)
T1 construct: the culture liquid was sterilized through filtration; endogenous in cells; host or cells: Pseudomonas aeruginosa (human clinical isolate), sterile-filtered culture supernatant, not purified
Procedure: A seed medium used was prepared as follows. Specifically, 3 g of Nissui Trypto-Soya Broth (product of Nissui Seiyaku) was dissolved in 100 mL of deionized water, and the resultant solution was dispensed into test tubes so that each test tube contained 3 mL of the solution, followed by high-pressure sterilization. Then, Pseudomonas aeruginosa (human clinical isolate) was inoculated into the seed medium in an amount of 2% by volume, and seed culturing was performed in a water bath at 37° C. and 100 rpm for 3 hours.
A synthetic medium for main culturing was prepared as follows. […]
Neutral/alkaline ceramidase activity was measured according to the method used by Okino et al. (J. Biol. Chem. 273, 14368-14373, 1998) with minor modifications. […]
The above solution (20 μL) was spotted onto a TLC plate (MERCK 25 TLC plates 20 cm×20 cm Silica gel 60 F254) and developed (chloroform:methanol ammonia (25%)=90:20:0.5, by volume). Subsequently, Image Reader FLA 5000 (product of FUJIFILM Corporation) was used to measure the fluorescence derived from the substrate, and Science Lab 2001 ImageGauge (product of FUJIFILM Corporation) was used to calculate the inhibitory rate of substrate decomposition.

NC/Nga mice = experiment: Therapeutic effects on atopic dermatitis-like model mice (mast cell count in skin); format: in vivo
Excerpt: Atopic dermatitis-like model mice were used to test ceramidastin for the therapeutic effects on atopic dermatitis. Specifically, the above-obtained enzyme liquid was applied onto the mice to examine the aggravation degree of corneal layer of epidermis and inflammation. In addition, the enzyme liquid and ceramidastin were applied thereonto to examine the effects on the skin brought by inhibiting neutral/alkaline ceramidase activity.
The atopic dermatitis-like model mice used were 6-week-old NC/Nga female mice (product of Charles River). The above NC/Nga mice are used as an atopic dermatitis model (Hiroi et al. Jpn. J. Pharmacol. 76, 175-183, 1998) and have an increased number of mast cells in the skin tissue.
Hair was removed in advance from the 6-week-old NC/Nga female mice under anesthesia (six mice for each group). Subsequently, absorbent cotton impregnated with acetone-ether (1:1) was pressed for 15 sec against them under anesthesia by nembutal. […]
The procedure of the above defatting and applications of ceramidase and ceramidastin was repeated 47 times in total so that it was performed twice in the morning and evening for 5 days a week. […] The thus-formed tissue pieces were stained with toluidine blue, and the number of mast cells in the tissue was counted under a microscope.

T1 sequence (Q9I596 25-670): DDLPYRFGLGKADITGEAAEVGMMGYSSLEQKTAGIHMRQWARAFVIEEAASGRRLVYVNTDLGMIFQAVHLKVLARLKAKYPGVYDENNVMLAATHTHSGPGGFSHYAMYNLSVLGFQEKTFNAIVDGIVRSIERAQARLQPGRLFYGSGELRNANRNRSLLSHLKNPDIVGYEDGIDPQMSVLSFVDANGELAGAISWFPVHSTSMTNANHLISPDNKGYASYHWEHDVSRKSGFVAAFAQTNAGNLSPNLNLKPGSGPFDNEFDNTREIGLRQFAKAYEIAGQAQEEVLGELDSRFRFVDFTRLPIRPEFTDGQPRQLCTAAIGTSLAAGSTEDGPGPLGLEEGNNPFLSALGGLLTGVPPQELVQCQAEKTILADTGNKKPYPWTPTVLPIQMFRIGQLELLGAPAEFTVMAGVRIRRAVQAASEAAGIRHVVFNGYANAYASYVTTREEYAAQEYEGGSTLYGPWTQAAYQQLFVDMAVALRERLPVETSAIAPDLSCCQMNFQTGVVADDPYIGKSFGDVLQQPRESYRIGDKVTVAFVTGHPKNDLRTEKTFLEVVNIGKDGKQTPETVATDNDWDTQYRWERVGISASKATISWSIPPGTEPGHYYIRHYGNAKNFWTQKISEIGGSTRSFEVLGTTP

CCCCCCC(O)C1C2=C(CC(C(O)C(O)C/C=C/CO)CC3=C(C(=O)OC3=O)C1O)C(=O)OC2=O (stereo not drawn) [ceramidastin]
IC50 [1]: 12 µM
number of mast cells in mouse skin pieces (NC/Nga mice; NC/Nga female mice, defatting + ceramidase + 0.2 mL ceramidastin 1 mg/mL on skin, 47 times, toluidine blue, ceramidase-applied 22.6±8.5, untreated 13.04±4.38): 15.5±5.2
effect on increase in the number of mast cells (NC/Nga mice; ceramidase+ceramidastin-applied skin pieces vs ceramidase-applied skin pieces, NC/Nga mice): significantly inhibited

Source: patent US8263369B2, “Compound ceramidastin, method for producing the same, and use of the same” (Microbial Chemistry Research Foundation, priority 2008, dated 2012)
